Assay results published in US11401278B2, “Macrocyclic indole derivatives” (The Broad Institute, Inc., priority 2017, dated 2022).
Structures can show the parent of a compound that is named as a salt. Where two headings read alike, the source gives them in different places.

Tests used:
A2780 = assay: Antiproliferation assay (Assay 7), A2780; format: cell-based; conditions: CellTiter-Glo, several values per example
Procedure: Assessment of the Anti-Proliferative Effect of Compounds in Different Cell Lines
The impact of compounds on the proliferation of different cell lines was assessed using the CellTiter-Glo® Luminescent Cell Viability reagent from Promega (G7573).
In parallel, cells were plated in a reference (day 0) plate for time zero determination.
Rim wells were excluded. The cells were incubated for 72 hours in a humidified incubator at 37° C. The day 0 plate was measured by adding 30 μL/well of CTG solution (CellTiter-Glo® Luminescent Cell Viability reagent, Promega G7573) to time zero wells in the reference plate followed by a 10 minutes incubation and luminescence reading at 0.1 ms. using the PHERAstar FS microplate reader (BMG Labtech).
After 72 hours incubation, the treated plates were measured in the same way as the day 0 plate mentioned above.

MCL1 protein = MCL1 protein (Homo sapiens (Human), UniProt Q07820); assay: PIxEL: protein-protein interaction in permeabilized cells by ELISA (Assay 5); format: cell-based; conditions: permeabilized RKO cells, Biotin-BIM peptide 0.2 μM, serum free; median
Procedure: PI×EL: Protein-Protein Interaction in Permeabilized Cells by ELISA
Most MCL1 protein molecules are localized at the mitochondria outer membrane and sequester pro-apoptotic proteins through binding of their BCL2 homology domain 3 (BH3 domain). MEB buffer (150 mM mannitol, 10 mM HEPES pH 7.5, 50 mM KCl, 20 μM EDTA, 20 μM EGTA, 5 mM potassium succinate, 0.1% protease-free BSA (SIGMA) with low dose digitonin (0.002%) permeabilizes plasma membrane while leaves live mitochondria, where MCL1 maintains its native localization and conformation. Unlike biophysical assays (e.g. TR-FRET) that use truncated recombinant MCL1 protein, this assay uses full length endogenous MCL1 protein at mitochondria outer membrane. It measures the interaction between MCL1 protein and biotinylated BIM BH3 peptide. Compounds can compete with BIM BH3 peptide to bind to MCL1 protein. This serum free assay measures the affinity between MCL1 protein and compound in permeabilized cells, therefore it is not affected by serum binding and cell permeability, and can measure the intrinsic compound affinity.
On day 1, RKO colon cancer cell line cells were plated at 0.8 million cells/ml, 100 μl/well in 96-well flat bottom TC plates (Corning). MCL1 antibody (Santa Cruz sc-12756) were diluted at 200 fold (final concentration 1 μg/ml) in carbonate buffer (Thermo Fisher Scientific, pH 9.6), and 50 μl of diluted antibody was added to each well of high bind ELISA plates (SARSTEDT). Each plate was tapped to make sure liquid covering entire bottom of wells and incubate at 37° C. overnight.
On the second day, MCL1 antibody was washed from ELISA plate. 250 μl Odyssey® Blocking Buffer (PBS) (Li-Cor) was added to each well, incubated at room temperature for at least 1 hour, then washed once with 250 μl 1×PBST. Plates with RKO cells were gently washed once with 100 μl/well PBS, once with 100 μl/well MEB buffer without digitonin, then 100 μl of MEB buffer with 0.002% digitonin was gently added to each well. Compounds were added with HP Tecan compound dispenser in 3-fold dilution series, highest dose 30 μM, 10-dose per compound in quadruplicates. Biotin-BIM peptide (synthesized by 21st Century) was added with HP Tecan compound dispenser at 0.2 μM immediately after the addition of compounds. Plates were rocked for 1 hour at room temperature. Then MEB buffer was aspirated and 50 μl of CHAPS buffer (50 mM Tris-Cl, pH 7.4, 150 mM NaCl, 1% CHAPS, 1 mM EDTA, 1 mM EGTA, cOmplete protease inhibitors (Roche), PhosSTOP (Roche)) was added to each well. Plates were rocked for 1 hour at 4° C., then 45 μl cell lysate from each well were transferred to ELISA plates coated with MCL1 antibody. Plates were incubated overnight in the cold room with rocking.
On the third day, ELISA plates were washed once with 250 μl 1×PBST. Streptavidin-poly-HRP (Thermo Fisher Scientific) was diluted to 20 ng/ml in Odyssey blocking buffer plus 0.05% Triton-100, and 100 μl was added to each well of the ELISA plate. Plates were incubated at room temperature for 1 hour with rocking, then washed with 100 μL 1×PBST for 3 times. Each SuperSignal ELISA Femto Maximum Sensitivity substrate was added to a 50-ml tube and mixed, then 100 μl of mixed substrate was added to each well. Plates were shaken for 1 minute then luminescence was measured by Envision plate reader […]. Signal of each well were normalized by no-compound control and no-cell control. IC50 was calculated using Graphic Pad PRISM software.

MCL-1 = MCL-1 (Homo sapiens (Human), UniProt Q07820, K194A/K197A/R201A); assay: Protein-compound interaction assay (SPR assay, Assay 8); format: binding; conditions: immobilized MBP-MCL-1, 25° C., geometric mean; for koff: read-out: koff; for kon: read-out: kon
Excerpt: Assay 8 Protein-Compound Interaction Assay (SPR Assay)
The ability of the compounds described in this invention to bind to MCL-1 may be determined using surface plasmon resonance (SPR). This allows for the quantification of binding in terms of the equilibrium dissociation constant (KD [M]), as well as association and dissociation rate constants (kon [1/M 1/s] and koff [1/s], respectively). The measurements may be performed using Biacore® T200 or Biacore® S200 instruments (GE Healthcare).
For SPR measurements, recombinant MCL-1 (amino acids 173-321, N-terminal fused to Maltose Binding Protein (MBP) (SEQ ID 1) purchased from Beryllium (Bedford, Mass., USA)) was immobilized using standard amine coupling (Johnsson B et al, Anal Biochem. 1991 Nov. 1; 198(2):268-77). Briefly, carboxymethylated dextran biosensor chips (Series S Sensor Chip CMS, GE Healthcare) were activated with 1-ethyl-3-(3-dimethylaminopropyl)-carbodiimide hydrochloride (EDC) and N-hydroxysuccinimide (NHS) according to the supplier's instructions. MBP-MCL-1 was diluted in 1×PBS-P+ (GE Healthcare) and injected on the activated chip surface. Subsequently, a solution of 1 M ethanolamine-HCl (GE Healthcare) was injected to block unreacted groups, resulting in approximately 400-2500 response units (RU) of immobilized protein. A reference surface was generated by treatment with NHS-EDC and ethanolamine-HCl. Compounds were dissolved in 100% dimethylsulfoxide (DMSO) to a concentration of 10 mM and subsequently diluted in running buffer (1×PBS-P+ (GE Healthcare) [generated from PBS-P+ Buffer 10× (GE Healthcare): 0.2 M phosphate buffer with 27 mM KCl, 1.37 M NaCl and 0.5% Surfactant P20 (Tween 20).], 1% v/v DMSO). For SPR binding-measurements, serial dilutions of compound (eight dilution steps, typically ranging from 0.2 nM up to 1 μM) were injected over immobilized protein. […] Compounds were injected for 60 s followed by a dissociation time of up to 1000 s.
The double-referenced sensorgrams were fit to a simple reversible Langmuir 1:1 reaction mechanism as implemented in the Biacore® T200 and S200 evaluation software (T200 evaluation software version 2.0 and S200 evaluation software version 1.0, GE Healthcare).

Chain of MCL-1 (Q07820 whole entry K194A/K197A/R201A, looked up): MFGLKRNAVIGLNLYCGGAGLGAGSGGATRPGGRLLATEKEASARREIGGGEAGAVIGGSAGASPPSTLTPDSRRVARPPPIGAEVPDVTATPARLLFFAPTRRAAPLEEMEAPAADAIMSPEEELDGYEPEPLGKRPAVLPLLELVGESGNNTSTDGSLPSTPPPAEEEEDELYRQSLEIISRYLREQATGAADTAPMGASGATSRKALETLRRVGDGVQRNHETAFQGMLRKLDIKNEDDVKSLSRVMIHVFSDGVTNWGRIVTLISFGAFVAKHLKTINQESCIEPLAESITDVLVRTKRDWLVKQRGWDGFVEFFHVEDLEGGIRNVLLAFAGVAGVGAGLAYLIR
Chain of MCL1 protein (Q07820 whole entry): as the sequence (Q07820 whole entry K194A/K197A/R201A, looked up) above, with A194K, A197K, A201R counted along it

| IC50 (A2780; 72 hours, listed as 01, read-out: Antiproli A2780 [M] IC50) | IC50 (A2780; Homo sapiens, A2780, 72 h, read-out: Antiproli A2780 [M] IC50) | IC50 (MCL1 protein) | Kd (MCL-1) | koff (MCL-1) | kon (MCL-1) | SMILES |
| --- | --- | --- | --- | --- | --- | --- |
| > 3.3e-05 M | 3.21e-05 M | – | – | – | – | Cc1c2c(nn1C)CN(CCN1CCOCC1)S(=O)(=O)CCCn1c(C(=O)O)c(CCCOc3cccc4ccccc34)c3cccc-2c31 (racemic) [Example 1, (rac)-2,3-Dimethyl-14-[2-(morpholin-4-yl)ethyl]-7-{3-[(naphthalen-1-yl)oxy]propyl}-13,13-dioxo-10,11,12,13,14,15-hexahydro-2H-13λ^6-pyrazolo[3′,4′:4,5][1,2,8]thiadiazacycloundecino-[6,7,8-hi]indole-8-carboxylic acid] |
| – | – | 552 nM | 3.6 nM | 0.008 s⁻¹ | 2.2e+06 M⁻¹ s⁻¹ | CCc1c2c(nn1C)CN(C)S(=O)(=O)CCCn1c(C(=O)O)c(CCCOc3cccc4cc(F)ccc34)c3ccc(F)c-2c31 (single isomer, unassigned; enantiomer 1) [Example 8, (+)-3-Ethyl-4-fluoro-7-{3-[(6-fluoronaphthalen-1-yl)oxy]propyl}-2,14-dimethyl-13,13-dioxo-10,11,12,13,14,15-hexahydro-2H-13λ^6-pyrazolo[3′,4′:4,5][1,2,8]thiadiazacycloundecino-[6,7,8-hi]indole-8-carboxylic acid (Enantiomer 1)] |
| – | – | 86.6 nM | 4 nM | 0.004 s⁻¹ | 1e+06 M⁻¹ s⁻¹ | CCc1c2c(nn1C)CN(C)S(=O)(=O)CCCn1c(C(=O)O)c(CCCOc3cccc4cc(F)ccc34)c3ccc(Cl)c-2c31 (single isomer, unassigned; enantiomer 1) [Example 36, (+)-4-chloro-3-ethyl-7-{3-[(6-fluoronaphthalen-1-yl)oxy]propyl}-2,14-dimethyl-13,13-dioxo-10,11,12,13,14,15-hexahydro-2H-13lambda^6-pyrazolo[3′,4′:4,5][1,2,8]thiadiazacycloundecino-[6,7,8-hi]indole-8-carboxylic acid (Enantiomer 1)] |
| – | – | 14.2 nM | 1.9 nM | 0.0012 s⁻¹ | 590000 M⁻¹ s⁻¹ | CCc1c2c(nn1C)C(CCC1CCOCC1)N(C)S(=O)(=O)CCCn1c(C(=O)O)c(CCCOc3cccc4cc(F)ccc34)c3ccc(Cl)c-2c31 (single isomer, unassigned; enantiomer 1) [Example 61, (+)-4-chloro-3-ethyl-7-{3-[(6-fluoronaphthalen-1-yl)oxy]propyl}-2,14-dimethyl-15-[2-(oxan-4-yl)ethyl]-13,13-dioxo-10,11,12,13,14,15-hexahydro-2H-13lambda^6-pyrazolo[3′,4′:4,5][1,2,8]thiadiazacycloundecino[6,7,8-hi]indole-8-carboxylic acid (Enantiomer 1)] |
| – | – | 506 nM | 5.3 nM | 0.018 s⁻¹ | 3.4e+06 M⁻¹ s⁻¹ | Cc1c2c(nn1C)CN(C)S(=O)(=O)CCCn1c(C(=O)O)c(CCCOc3cccc4cc(F)ccc34)c3ccc(F)c-2c31 (single isomer, unassigned; enantiomer 2) [Example 39, (+)-4-fluoro-7-{3-[(6-fluoronaphthalen-1-yl)oxy]propyl}-2,3,14-trimethyl-13,13-dioxo-10,11,12,13,14,15-hexahydro-2H-13lambda^6-pyrazolo[3′,4′:4,5][1,2,8]thiadiazacycloundecino-[6,7,8-hi]indole-8-carboxylic acid (Enantiomer 2)] |
| – | – | 201 nM | 2.8 nM | 0.016 s⁻¹ | 5.6e+06 M⁻¹ s⁻¹ | Cc1c2c(nn1C)C(CCN1CCOCC1)N(C)S(=O)(=O)CCCn1c(C(=O)O)c(CCCOc3cccc4ccccc34)c3cccc-2c31 (single isomer, unassigned; enantiomer 2) [Example 46, 2,3,14-trimethyl-15-[2-(morpholin-4-yl)ethyl]-7-{3-[(naphthalen-1-yl)oxy]propyl}-13,13-dioxo-10,11,12,13,14,15-hexahydro-2H-13lambda^6-pyrazolo[3′,4′:4,5][1,2,8]thiadiazacycloundecino[6,7,8-hi]indole-8-carboxylic acid N-ethylethanamine Salt (Enantiomer 2)] |

| SMILES | IC50 (A2780; 72 hours, listed as 01, read-out: Antiproli A2780 [M] IC50) | IC50 (A2780; Homo sapiens, A2780, 72 h, read-out: Antiproli A2780 [M] IC50) | IC50 (MCL1 protein) | Kd (MCL-1) | koff (MCL-1) | kon (MCL-1) |
| --- | --- | --- | --- | --- | --- | --- |
| Cc1c2c(nn1C)CN(C1CC1)S(=O)(=O)CCCn1c(C(=O)O)c(CCCOc3cccc4cc(F)ccc34)c3ccc(Cl)c-2c31 (single isomer, unassigned; enantiomer 1) [Example 42, (−)-4-chloro-14-cyclopropyl-7-{3-[(6-fluoro-1-naphthyl)oxy]propyl}-2,3-dimethyl-11,12,14,15-tetrahydro-2H,10H-pyrazolo[3′,4′:4,5][1,2,8]thiadiazacycloundecino[6,7,8-hi]indole-8-carboxylic acid 13,13-dioxide N-diethylamine salt (Enantiomer 1)] | – | – | 157 nM | 7.6 nM | 0.016 s⁻¹ | 2.1e+06 M⁻¹ s⁻¹ |
| Cc1c2c(nn1C)CN(C1CC1)S(=O)(=O)CCCn1c(C(=O)O)c(CCCOc3cccc4ccccc34)c3ccc(Cl)c-2c31 [Example 40, (rac)-4-chloro-14-cyclopropyl-2,3-dimethyl-7-[3-(1-naphthyloxy)propyl]-11,12,14,15-tetrahydro-2H,10H-pyrazolo[3′,4′:4,5][1,2,8]thiadiazacycloundecino[6,7,8-hi]indole-8-carboxylic acid 13,13-dioxide] | – | – | 29400 nM | – | – | – |
